The values that follow come from the supplement of paper PMC11061612.

One assay deals with DSH1 (Bladder Carcinoma). Kind of assay: combination Emax (second highest fraction inhibited in the dose matrix, 72 h); higher = more inhibition; extreme values may be limits of the assay. The method, boiled down:
(§1)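 After 24 hours at 37°C and 5% CO2 in 1536-well plates, cells in DMEM/F12 or RPMI plus 10% FBS received two-drug dose matrices for 72 hours. Viability came from CellTiter-Glo 2.0 luminescence and was scaled as inhibition, anchored at 0 by vehicle wells and at 1 by blank wells. Combination Emax is taken as the second-highest inhibition in the matrix, and Bliss excess as the observed combination effect less EA + EB − EA·EB, with EA and EB the single-agent effects.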

Assay [1] has as its system LS-513 (Colorectal Carcinoma). The description is as above. An outline of the steps: as §1
Assay [2] relates to TE-5 (Esophageal Squamous Cell Carcinoma). Described as above. An outline of the steps: as §1
Assay [3] concerns NALM-6 (B-Lymphoblastic Leukemia). The assay is described as above. An outline of the steps: as §1
For assay [4], the system named is SW1990 (Pancreatic Carcinoma). Described as above. The method, boiled down:
as §1

Assay [5] deals with COR-L95 (Small Cell Lung Carcinoma). The description is as above. The method, boiled down:
as §1

Assay [6] relates to HT-29 (Colorectal Carcinoma). The assay is described as above. An outline of the steps:
as §1

For assay [7], the system named is MDA-MB-231 (Breast Carcinoma). Briefly: Bliss excess, mean over the matrix (fraction); higher = more synergy. An outline of the steps:
as §1

Assay [8] concerns OCI-AML2 (Acute Myeloid Leukemia). The assay is described as above. An outline of the steps:
as §1

Another assay concerns NCI-H2595 (Mesothelioma). The description is as above. The method, boiled down: as §1
The subject of assay [9] is G-292-Clone-A141B1 (Osteosarcoma). The description is as above. An outline of the steps:
as §1

The test system of a further assay is ES7 (Ewing's Sarcoma). The description is as above. The method, boiled down:
as §1

The test system of assay [10] is KATOIII (Gastric Carcinoma). The description is as above. The method, boiled down:
as §1

The subject of assay [11] is KARPAS-1106P (B-Cell Non-Hodgkin's Lymphoma). Described as above. An outline of the steps:
as §1

For assay [12], the system named is NALM-6 (B-Lymphoblastic Leukemia). The assay is described as above. An outline of the steps: as §1
In assay [13] the test system is U-266 (Plasma Cell Myeloma). Described as above. An outline of the steps: as §1
Assay [14] relates to SW1990 (Pancreatic Carcinoma). The description is as above. An outline of the steps: as §1
The test system of another assay is SK-N-FI (Neuroblastoma). Described as above. An outline of the steps: as §1
Assay [15] relates to IHH-4 (Thyroid Gland Carcinoma). The assay is described as above. The method, boiled down: as §1
For assay [16], the system named is MFH-ino (Other Solid Carcinomas). The description is as above. The method, boiled down:
as §1
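Throughout, for Bliss excess, mean over the matrix: after 72 h of two-drug dosing.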

As for `N#Cc1cnc(Nc2cc(NC[C@H]3CNCCO3)c(C(F)(F)F)cn2)cn1` [SRA737] + CCc1c2c(nc3ccc(O)cc13)-c1cc3c(c(=O)n1C2)COC(=O)[C@]3(O)CC [SN-38] (first compound max 10 µM, 7x7, partner max 0.3 µM), the “combination Emax” value in the assay on DSH1 (Bladder Carcinoma) worked out at 0.95; in assay [1], 0.742; in [2] it was 0.851; in assay [3], 1; in assay [4], 0.519; in assay [5] it was 0.572. In addition, the “combination Emax” value in [6] turned out to be 0.903. Moreover, the Bliss excess in assay [7] was -0.0227; in assay [8], -0.0348; in the assay with NCI-H2595 (Mesothelioma) it was -0.0762; in [9], 0.0099; in the assay with ES7 (Ewing's Sarcoma) it was -0.0138; in assay [10], -0.0046. For the same compound, the Bliss excess was -0.0918 in assay [11]; -0.0083 in assay [12]; 0.0402 in assay [13]; -0.0824 in [14]; -0.121 with SK-N-FI (Neuroblastoma); -0.0117 in assay [15]. The Bliss excess in [16] was -0.0461.
Turning to `C[C@@H](Nc1cc(F)cc(F)c1)c1cc(C(=O)N(C)C)cc2c(=O)cc(N3CCOCC3)oc12` [AZD8186] + C1CN(CCC1(C(=O)N[C@@H](CCO)C2=CC=C(C=C2)Cl)N)C3=NC=NC4=C3C=CN4 [AZD5363] (first compound max 10 µM, 7x7, partner max 10 µM), the “combination Emax” value in the assay with DSH1 (Bladder Carcinoma) came out at 0.327; in [1] it was 0.534; in [2], 0.35; in [3], 0.674; in assay [4] it was 0.188; in assay [5] it was 0.225. Moreover, in assay [6], the “combination Emax” value amounted to 0.449. Besides, the Bliss excess is 0.0036 in assay [7]; -0.0007 in [8]; -0.0537 with NCI-H2595 (Mesothelioma); -0.0518 in [9]; 0.0043 in the assay on ES7 (Ewing's Sarcoma); -0.0739 in assay [10]. Further, the Bliss excess in assay [11] was -0.0234; in assay [12] it was -0.0357; in assay [13], -0.0427; in [14] it was -0.0436; in the assay on SK-N-FI (Neuroblastoma), -0.0299; in assay [15], 0.0233. Besides, the Bliss excess in assay [16] is -0.0258.
`Cc1c2c(nn1C)CSCc1cc(n(C)n1)CSc1cc(c3ccccc3c1)OCCCc1c(C(=O)O)n(C)c3c-2c(Cl)ccc13` [AZD5991] + CC(=O)O[C@H]1C(=O)[C@@]2(C)[C@H]([C@H](OC(=O)c3ccccc3)[C@]3(O)C[C@H](OC(=O)[C@H](O)[C@@H](NC(=O)c4ccccc4)c4ccccc4)C(C)=C1C3(C)C)[C@]1(OC(C)=O)CO[C@@H]1C[C@@H]2O [Paclitaxel] (first compound max 1 µM, 7x7, partner max 3 µM): the “combination Emax” value with DSH1 (Bladder Carcinoma) came to 0.963; in assay [1] it was 0.893; in assay [2], 0.699; in [3], 0.969; in assay [4], 0.496; in assay [5], 0.399. The “combination Emax” value in [6] is 0.77. Further, the Bliss excess in [7] was 0.0049; in assay [8] it was -0.0046; in the assay with NCI-H2595 (Mesothelioma) it was -0.0504; in [9], 0.0565; in the assay on ES7 (Ewing's Sarcoma), -0.06; in assay [10], -0.0298. Besides, the Bliss excess in [11] was 0.132; in assay [12] it was -0.0432; in assay [13] it was -0.0074; in assay [14], -0.0231; in the assay with SK-N-FI (Neuroblastoma), -0.0177; in [15], -0.0341. Besides, the Bliss excess in assay [16] is -0.0321.
With `Cc1nc(-c2cn3c(n2)-c2ccc(-c4cnn(C(C)(C)C(N)=O)c4)cc2OCC3)n(C(C)C)n1` [Taselisib] + O=C(Nc1ccc2[nH]nc(-c3ccncc3)c2c1)[C@@H]1CCN(CC(=O)N2CCN(c3ccc(-c4ncccn4)cc3)CC2)C1 [SCH772984] (first compound max 10 µM, 7x7, partner max 5 µM), the “combination Emax” value came to 0.977 in the assay on DSH1 (Bladder Carcinoma); 0.975 in assay [1]; 0.822 in assay [2]; 0.752 in assay [3]; 0.655 in assay [4]; 0.238 in assay [5]. Further, in assay [6], the “combination Emax” value came to 0.965. The Bliss excess in assay [7] is 0.0595; in assay [8] it was 0.132; in the assay on NCI-H2595 (Mesothelioma), -0.0324; in assay [9], -0.0258; with ES7 (Ewing's Sarcoma), 0.036; in assay [10] it was -0.0189. Further, the Bliss excess is 0.0391 in [11]; 0.017 in assay [12]; 0.0774 in [13]; 0.0724 in assay [14]; 0.0465 in the assay with SK-N-FI (Neuroblastoma); 0.0056 in [15]. Besides, the Bliss excess in assay [16] was -0.0018.
For `C[C@@H]1COCCN1c1cc(C2([S@](C)(=N)=O)CC2)nc(-c2ccnc3[nH]ccc23)n1` [AZD6738] + Nc1ccn([C@@H]2O[C@H](CO)[C@@H](O)C2(F)F)c(=O)n1 [Gemcitabine] (first compound max 10 µM, 7x7, partner max 0.3 µM), the “combination Emax” value with DSH1 (Bladder Carcinoma) was found to be 1; in assay [1], 0.824; in assay [2] it was 0.666; in assay [3], 0.974; in assay [4], 0.463; in [5], 0.459. Also, the “combination Emax” value in assay [6] was 0.873. Besides, the Bliss excess amounted to 0.0736 in [7]; 0.0351 in [8]; 0.0326 in the assay on NCI-H2595 (Mesothelioma); 0.0421 in [9]; 0.0367 in the assay on ES7 (Ewing's Sarcoma); 0.0057 in assay [10]. In addition, the Bliss excess is 0.0614 in assay [11]; -0.0252 in [12]; 0.057 in assay [13]; -0.0028 in assay [14]; 0.0769 in the assay with SK-N-FI (Neuroblastoma); 0.0816 in assay [15]. Further, the Bliss excess in assay [16] was -0.0585.
For `N#Cc1cnc(Nc2cc(NC[C@H]3CNCCO3)c(C(F)(F)F)cn2)cn1` [SRA737] + O=c1[nH]cc(F)c(=O)[nH]1 [5-Fluorouracil] (first compound max 10 µM, 7x7, partner max 20 µM), the “combination Emax” value in the assay with DSH1 (Bladder Carcinoma) worked out at 0.414; in assay [1], 0.644; in [2], 0.24; in assay [3], 0.896; in [4], 0.515; in [5], 0.232. In [6], the “combination Emax” value came to 0.696. The Bliss excess in assay [7] was -0.0492; in assay [8], 0.0247; in the assay on NCI-H2595 (Mesothelioma) it was -0.0448; in assay [9], -0.0458; with ES7 (Ewing's Sarcoma), 0.0157; in [10] it was -0.0805. Also, the Bliss excess in assay [11] was 0.0407; in [12] it was 0.0117; in assay [13] it was 0.0562; in assay [14], -0.0577; in the assay on SK-N-FI (Neuroblastoma) it was -0.0627; in assay [15], 0.098. The Bliss excess in [16] was found to be 0.0373.
